What all share (assay type): cell-based, human
The test system of assay [1] is A549 NSCLC cells. The assay can be described thus: Immunofluorescent staining of microtubules in cultured cells. As to conditions: for microtubule phenotype of mitotic or G2/M arrested cells: 24 hours treatment, anti-alpha-tubulin staining; for microtubule phenotype, agent added for the last 4 hours of 24 hours BAL27862 treatment: combination. As to the method:
A549 human non-small cell lung cancer (NSCLC, ATCC reference number CCL-185) cells, HeLa cervical cancer cells (ATCC reference number CCL-2) and SKBR3 breast carcinoma cells (ATCC reference number HTB-30) were seeded at densities of 50% on round microscope coverslips and cultured for 24 hours in RPMI-1640 containing 10% FCS (also referred to as FBS) at 37° C., 5% CO2. Compounds to be tested were dissolved in DMSO. The cell culture medium was replaced with medium containing the diluted compound(s) (paclitaxel, vinblastine, colchicine and nocodazole were purchased from Sigma-Aldrich) or vehicle. After treatment, coverslips were washed and cells were fixed in methanol/acetone (1:1) for 5 minutes at room temperature and subsequently incubated in blocking buffer (0.5% BSA and 0.1% TX-100 in PBS) for 30 minutes at room temperature. Specimens were then incubated with anti-alpha-tubulin antibody (Sigma, 1:2000) for 1 hour at room temperature in blocking buffer. After several washing steps cells were incubated with AlexaFluor-488 goat-anti-mouse IgG (Molecular Probes, 1:3000) for 1 hour at room temperature followed by several washing steps with blocking buffer. Specimens were then mounted with ProLong Gold antifade (Molecular Probes), sealed with nail polish and examined with a Leica immunofluorescence microscope. Images were captured with a cooled CCD-camera and processed by ImageJ software.

The test system of assay [2] is BAL27862-resistant cells. The assay can be described thus: Crystal Violet assay of BAL27862-resistant cell lines, all lines. The text has this:
(§1) BAL27862-resistant sublines of human non-small cell lung cancer (H460 ATCC reference HTB-177; A549 ATCC reference CCL-185), ovarian cancer (SKOV3 ATCC reference HTB-77) lines were generated by long-term selection in complete cell culture medium (RPMI-1640 containing 10% FCS; Sigma-Aldrich) by stepwise increasing concentrations of BAL27862. […] The resistant sublines were expanded at the highest tolerated BAL27862 concentration and subsequently frozen and stored in liquid nitrogen.
(§2) After medium was removed, cells were fixed and stained by adding 50 μl Crystal Violet Staining (0.2% Crystal Violet in 50% Methanol) per well. Plates were incubated for 1 hour at room temperature. Subsequently the stain was decanted and plates were washed 4 times with double-distilled water. Plates were air-dried for several hours. Stain was dissolved by adding 100 μl buffer (0.1 M Tris pH 7.5, 0.2% SDS, 20% Ethanol) per well and shaking the plates. Absorbance at 590 nm was measured using a SpectraMax M2e plate reader (Molecular Devices). Anti-proliferative IC50 values were calculated from concentration response curves using GraphPad Prism software. Resistance factors were calculated as a ratio of BAL27862 IC50 in the resistant line variant versus the IC50 in the parental line.

Assay [3] has as its system GXF251. The assay can be described thus: Colony outgrowth assay, patient-derived tumour xenograft cells. The settings on record: Gastric. The arrangement: key: S: BAL27862-sensitive tumour cells have IC70 values in the low nanomolar range; R: BAL27862-resistant tumour cells are defined by IC70 values >600 nanomolar. The procedure: (§3) Single cell suspensions of patient-derived tumour xenografts (maintained in nude mice) were prepared. For colony outgrowth assays, cells were plated in soft agar in 24-well plates according to the assay introduced by Hamburger & Salmon (Primary bioassay of human tumour stem cells, Science, 1977, 197:461-463). 2.0E+04-6.0E+04 cells in 0.2 mL medium containing 0.4% agar were plated out on a bottom layer of 0.75% agar. Test compounds were applied in 0.2 mL culture medium. Every 24-well plate contained untreated controls and samples in triplicates. Cultures were incubated at 37° C. and 7.5% CO2 for 5-28 days. 24 hours prior to analysis, vital colonies were stained with a solution of metabolizable tetrazolium salt (Alley M C et al, Life Sci. 1982, 31:3071-3078) and were counted with an automatic image analysis system (Omnicon 3600, Biosys GmbH).
(§4) Relative drug effects were expressed by the ratio of the mean number of colonies in the treated wells and the control wells. IC70-values were determined by plotting compound concentrations versus relative colony counts.

Assay [4] deals with LXFL529. The description is as above. More on the design: key: S: BAL27862-sensitive tumour cells have IC70 values in the low nanomolar range; R: BAL27862-resistant tumour cells are defined by IC70 values >600 nanomolar. The settings on record: Lung. As to the method: as §3, §4
The subject of assay [5] is GXF97. The description is as above. More on the design: key: S: BAL27862-sensitive tumour cells have IC70 values in the low nanomolar range; R: BAL27862-resistant tumour cells are defined by IC70 values >600 nanomolar. As to conditions: Gastric. As to the method: as §3, §4
The subject of assay [6] is LXFA629. The assay is described as above. The arrangement: key: S: BAL27862-sensitive tumour cells have IC70 values in the low nanomolar range; R: BAL27862-resistant tumour cells are defined by IC70 values >600 nanomolar. As to conditions: Lung. The procedure: as §3, §4
Assay [7] relates to tumour cells derived from patient-derived tumours from gastric and lung cancer. The assay can be described thus: Colony outgrowth assay, all tumour models. As to the method:
as §3, with “GmbH). Relative drug effects were expressed by the ratio of the mean number of colonies in the treated wells and the control wells. IC70-values were determined by plotting compound concentrations versus relative colony counts.” for “GmbH).”

Assay [8] relates to H460. The assay can be described thus: Crystal Violet assay of BAL27862-resistant cell line versus parental line. As to conditions: 72 hours incubation, Crystal Violet.
From the text: as §1, §2

For assay [9], the system named is A549. The assay is described as above. The settings on record: 72 hours incubation, Crystal Violet.
From the text: as §1, §2

For assay [10], the system named is SKOV3 resistant 1. Described as above. As to conditions: 72 hours incubation, Crystal Violet.
From the text: as §1, §2

Assay [11] concerns SKOV3 resistant 2. The assay is described as above. As to conditions: 72 hours incubation, Crystal Violet.
From the text: as §1, §2

For `Nc1ccc(C(=O)Cn2c(-c3nonc3N)nc3ccccc32)cc1` [Compound B, 2-[2-(4-Amino-furazan-3-yl)-benzoimidazol-1-yl]-1-(4-amino-phenyl)-ethanone], the “microtubule phenotype of mitotic or G2/M arrested cells” value in assay [1] was “highly reproducible and distinct microtubule phenotype”.
For `COC(=O)Nc1nc2ccc(C(=O)c3cccs3)cc2[nH]1` [Nocodazole, nocodazole], in assay [1], the “microtubule phenotype of mitotic or G2/M arrested cells” value was “mitotic microtubule phenotypes characteristic of these agents” and the “microtubule phenotype, agent added for the last 4 hours of 24 hours BAL27862 treatment” value (“microtubule phenotype, agent added” below) is “no impact on the observed microtubule phenotype”.
`CC(=O)O[C@H]1C(=O)[C@@]2(C)[C@H]([C@H](OC(=O)c3ccccc3)[C@]3(O)C[C@H](OC(=O)[C@H](O)[C@@H](NC(=O)c4ccccc4)c4ccccc4)C(C)=C1C3(C)C)[C@]1(OC(C)=O)CO[C@@H]1C[C@@H]2O` [Paclitaxel, paclitaxel]: in assay [2], the “response of BAL27862-resistant cells versus parental” value was “increased sensitivity”. For the same compound, the “Sensitive (S)/Resistant (R), by IC70 in colony outgrowth” value in assay [3], in assay [4], in [5] and in assay [6] was “R (BAL27862-resistant tumour cells are defined by IC70 values >600 nanomolar)” throughout. Also, the “resistance or sensitivity to treatment, same ex vivo assay” value in assay [7] was “resistant”. Besides, the “microtubule phenotype of mitotic or G2/M arrested cells” value in assay [1] was “mitotic microtubule phenotypes characteristic of these agents”. The “microtubule phenotype, agent added” value in assay [1] was “no impact on the observed microtubule phenotype”.
For the compound `CC[C@]1(O)C[C@@H]2CN(CCc3c([nH]c4ccccc34)[C@@](C(=O)OC)(c3cc4c(cc3OC)N(C)[C@H]3[C@@](O)(C(=O)OC)[C@H](OC(C)=O)[C@]5(CC)C=CCN6CC[C@]43[C@@H]65)C2)C1` [Vinblastine, vinblastine], the “Sensitive (S)/Resistant (R), by IC70 in colony outgrowth” value in assay [3], in [4], in [5] and in assay [6] was “S” in each case. For the same compound, in [7], the “resistance or sensitivity to treatment, same ex vivo assay” value is “sensitive”. Besides, the “microtubule phenotype of mitotic or G2/M arrested cells” value in assay [1] is reported as “mitotic microtubule phenotypes characteristic of these agents”. Further, the “microtubule phenotype, agent added” value in [1] was “no impact on the observed microtubule phenotype”.
For the compound `N#CCCNc1nonc1-c1nc2ccccc2n1CC(=O)c1ccc(N)nc1` [Compound C, 3-(4-{1-[2-(6-Amino-pyridin-3-yl)-2-oxo-ethyl]-1H-benzoimidazol-2-yl}-furazan-3-ylamino)-propionitrile], in assay [1], the “microtubule phenotype of mitotic or G2/M arrested cells” value was “highly reproducible and distinct microtubule phenotype”.
On to `COc1cc2c(c(OC)c1OC)-c1ccc(OC)c(=O)cc1[C@@H](NC(C)=O)CC2` [Colchicine, colchicine], for which the “Resistance factors (ratio of IC50 BAL27862-resistant cell line variant and IC50 parental cell line)” value in assay [8] came out at 1.6; in [9] it was 0.9; in assay [10] it was 2.0; in assay [11] it was 2.8. The “microtubule phenotype of mitotic or G2/M arrested cells” value in assay [1] is recorded as “mitotic microtubule phenotypes characteristic of these agents”. Also, the “microtubule phenotype, agent added” value in [1] is listed as “no impact on the observed microtubule phenotype”.

Values taken from patent US9970938B2, “Use of BUBR1 as a biomarker of drug response to furazanobenzimidazoles” (Basilea Pharmaceutica AG, priority 2011, dated 2018).
